Measurements published in patent US10125182B2, “Peptides hormone analogues derivable from preproglucagon” (IMPERIAL INNOVATIONS LIMITED, priority 2014, dated 2018).
Ends that are not written are not given here.

Columns and labels:
Format in all cases: in vivo
[1] = Mice feeding studies: cumulative food intake after subcutaneous administration; conditions: mice fasted 16 h, over 48 hours
Protocol: Male C57BL/6 mice (Harlan) or male Wistar rats (Charles River Ltd, Margate, UK) were used for all animal experiments.
Mice were individually housed in IVC cages. Animals were randomised into treatment groups, with stratification by body weight. Mice were fasted overnight (16 hrs) prior to peptide or vehicle administration. All peptide solutions were prepared freshly, immediately prior to administration. The vehicle used for all studies was 5% v/v water and 95% v/v sodium chloride (0.9% w/v). Peptide and vehicle were administered by subcutaneous injection, with dosage corrected for bodyweight. The injection volume was […]. […] Food intake was measured at 24 and 48 hours post injection. All statistics are calculated using a one-way ANOVA with Dunnett's post-test or one-way ANOVA with Bonferroni post-test.
Peptide hormone analogues of the invention (G1698 [SEQ ID NO 1], 500 nmol/kg dosage, reconstituted in saline, and G1718 [SEQ ID NO 6], 200 nmol/kg dosage, reconstituted in saline), comparator compounds (G1697, 500 nmol/kg dosage, reconstituted in saline, and G1717, 200 nmol/kg dosage, reconstituted in saline), or saline (vehicle control group) were administered subcutaneously to mice (group size 4-6 animals). […] Food intake (in grams) was measured at time intervals over 48 hours.

[2] = Mice feeding studies: body weight increase over 7 days; conditions: 200 nmol/kg subcutaneous in saline, compared with comparator having only His30-His31-His32 (G1721 or G1779; FIGS. 4, 5)
[3] = Rat pharmacokinetic studies: plasma concentration after subcutaneous injection with ZnCl2 (radioimmunoassay); conditions: 4 rats, 2 mg of each compound in 20 μl aqueous ZnCl2 at 1:1 molar ratio, 3 days (FIG. 7)
Protocol: Male C57BL/6 mice (Harlan) or male Wistar rats (Charles River Ltd, Margate, UK) were used for all animal experiments. The pharmacokinetics of a peptide hormone analogue of the invention in rat was evaluated over 7 days. 4 rats were injected subcutaneously with the peptide hormone analogue G2051 [SEQ ID NO 197]. Each injection was of […] total volume/rat containing 2 mg peptide and 1 zinc ion (as ZnCl2) per peptide molecule. Blood was collected at the indicated time points, and the concentration of the peptide hormone analogue was determined. Peptide levels were assessed by/using radioimmunoassay using R4 exendin-4 antibody. […] 4 rats were injected subcutaneously with the peptide hormone analogue G2051 [SEQ ID NO 197]. Each injection was of 20 μl total volume/rat containing 2 mg peptide and 1 zinc ion (as ZnCl2) per peptide molecule. Blood was collected at the indicated time points, and the concentration of the comparator compound was determined. Peptide levels were assessed by/using radioimmunoassay using R4 exendin-4 antibody.

## G1698: peptide hormone analogue of the invention; C-terminal extension His30-His31-His32-His33; full sequence only in FIG. 1 (HSQGTFTSDYSKYLDERRAHEFIEWLLNGHHHH; hormone analogue)
[1]; 500 nmol/kg subcutaneous in saline, compared with comparator G1697 (FIG. 2)
  reduction of cumulative food intake relative to saline control: more potent and more sustained reduction

## G1718: peptide hormone analogue of the invention; C-terminal extension His30-His31-His32-His33; full sequence only in FIG. 1 (HSQGTFTSDYSHYLDQRRAHEFIQWLLNGHHHH; hormone analogue)
[1]; 200 nmol/kg subcutaneous in saline, compared with comparator G1717 (FIG. 3)
  reduction of cumulative food intake relative to saline control: more potent and more sustained reduction

## G1722: peptide hormone analogue of the invention; C-terminal extension His30-His31-His32-His33; full sequence only in FIG. 1 (HSQGTFTSDYSHYLDSKRAHEFIQWLLNGHHHH; hormone analogue)
[2]
  reduction of body weight increase relative to saline control: more potent and more sustained reduction

## G1781: peptide hormone analogue of the invention; full sequence only in FIG. 1 (HSQGTFTSDYSKYLDERRAHEFIEWLLNGGHHHH; hormone analogue)
[2]
  reduction of body weight increase relative to saline control: more potent and more sustained reduction

## HSQGTFTSDYSKYLDHRRAKDFVQWLMNT-NH2 [G94]
[3]
  initial increase or spike in plasma concentration level: initial increase or “spike” in plasma concentration level is observed

## HSQGTFTSDYSKYLDSKKAQEFVEWLMNT [G202]
[3]
  initial increase or spike in plasma concentration level: initial increase or “spike” in plasma concentration level is observed

## HSQGTFTSDYSKYLDSKKAQEFVQWLLNT [G162]
[3]
  initial increase or spike in plasma concentration level: initial increase or “spike” in plasma concentration level is observed

## HSQGTFTSDYSKYLDSKKAQEFVQWLMNT-NH2 [G200]
[3]
  initial increase or spike in plasma concentration level: initial increase or “spike” in plasma concentration level is observed
